# Molecular target: Protein c-Fos/Transcription factor Jun (Homo sapiens, UniProt P05412+P01100)
# Assay: Inhibition of AP-1 (activator protein-1) mediated transcriptional activation in Jurkat T-cells
# Sequence of Protein c-Fos/Transcription factor Jun (P05412 whole entry): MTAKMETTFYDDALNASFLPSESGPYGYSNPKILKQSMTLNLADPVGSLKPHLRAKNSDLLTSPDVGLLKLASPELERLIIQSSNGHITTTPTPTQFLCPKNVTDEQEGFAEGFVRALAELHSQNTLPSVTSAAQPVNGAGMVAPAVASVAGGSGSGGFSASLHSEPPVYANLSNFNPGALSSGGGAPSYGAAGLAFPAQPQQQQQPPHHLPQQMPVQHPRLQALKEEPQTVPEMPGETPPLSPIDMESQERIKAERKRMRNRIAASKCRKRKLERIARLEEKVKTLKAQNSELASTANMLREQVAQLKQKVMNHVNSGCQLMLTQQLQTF
# Sequence of Protein c-Fos/Transcription factor Jun (P01100 whole entry): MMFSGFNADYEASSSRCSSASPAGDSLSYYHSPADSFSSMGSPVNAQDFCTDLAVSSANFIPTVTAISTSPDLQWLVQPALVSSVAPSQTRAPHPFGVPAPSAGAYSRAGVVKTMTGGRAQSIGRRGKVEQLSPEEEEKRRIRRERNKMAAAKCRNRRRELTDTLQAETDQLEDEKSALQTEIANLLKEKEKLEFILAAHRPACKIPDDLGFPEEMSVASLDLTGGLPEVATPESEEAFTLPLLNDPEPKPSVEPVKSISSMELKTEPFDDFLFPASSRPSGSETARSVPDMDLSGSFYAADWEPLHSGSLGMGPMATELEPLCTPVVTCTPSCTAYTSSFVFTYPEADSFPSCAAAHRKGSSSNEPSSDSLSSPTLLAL
row,IC50 [µM],Structure (SMILES)
1,4,"CCOC(=O)c1cnc(-c2cc3ccccc3s2)nc1NN1C(=O)C=C(C)C1=O [2-Benzo[b]thiophen-2-yl-4-(3-methyl-2,5-dioxo-2,5-dihydro-pyrrol-1-ylamino)-pyrimidine-5-carboxylic acid ethyl ester]"
2,7,"CCOC(=O)c1cnc(-c2cccc([N+](=O)[O-])c2)nc1NN1C(=O)C=C(C)C1=O [4-(3-Methyl-2,5-dioxo-2,5-dihydro-pyrrol-1-ylamino)-2-(3-nitro-phenyl)-pyrimidine-5-carboxylic acid ethyl ester]"
3,4,"CCOC(=O)c1cnc(-c2ccccc2)nc1N(C(C)=O)N1C(=O)C=C(C)C1=O [4-[Acetyl-(3-methyl-2,5-dioxo-2,5-dihydro-pyrrol-1-yl)-amino]-2-phenyl-pyrimidine-5-carboxylic acid ethyl ester]"

# The remaining lines, values behind:
row,Structure (SMILES),IC50 [µM]
1,"CC1=CC(=O)N(Nc2nc(-c3cccs3)ncc2-c2cc(C)no2)C1=O [3-methyl-1-(5-(3-methylisoxazol-5-yl)-2-(thiophen-2-yl)pyrimidin-4-ylamino)-1H-pyrrole-2,5-dione]",0.3
2,"CC1=CC(=O)N(Nc2nc(-c3cccs3)ncc2C#N)C1=O [4-(3-Methyl-2,5-dioxo-2,5-dihydro-pyrrol-1-ylamino)-2-thiophen-2-yl-pyrimidine-5-carbonitrile]",5

# From BindingDB's records for doi:10.1016/s0960-894x(00)00312-7 (Signal Pharmaceuticals, 2000)
